# From ChEMBL document CHEMBL3526155, “Endoxifen, the active metabolite of tamoxifen, is a substrate of the efflux transporter P-glycoprotein (multidrug resistance 1)” (Drug Metab Dispos, 2011)
# Legend:
# MDR1 (ABCB1) [1] = biological target: T1, MDR1 (ABCB1) (Homo sapiens, UniProt P08183); experiment: Activity of human MDR1 expressed in pig LLC-PK cells assessed as apparent permeability from basolateral to apical side at 5 uM after 1 to 4 hrs by LC-MS/MS analysis; assay type: ADME, cell-based; settings: LLC-PK1
# Plasma [2] = experiment: Drug uptake in wild-type CF-1 mouse plasma at 5 mg/kg, po after 0.5 to 4 hrs by LC-MS/MS analysis; assay type: ADME, organism-based; design: dose 5 mg/kg, route oral; settings: in vivo
# Liver [3] = experiment: Drug uptake in wild-type CF-1 mouse liver at 5 mg/kg, po after 0.5 to 4 hrs by LC-MS/MS analysis; assay type: ADME, organism-based; design: dose 5 mg/kg, route oral; settings: in vivo
# [4] = Apparent permeability from apical to basolateral side in pig LLC-PK cells at 5 uM after 1 to 4 hrs by LC-MS/MS analysis; assay type: ADME, cell-based, Sus scrofa; settings: LLC-PK1
# Brain [5] = experiment: Drug uptake in wild-type CF-1 mouse brain at 5 mg/kg, po after 0.5 to 4 hrs by LC-MS/MS analysis; assay type: ADME, organism-based; design: dose 5 mg/kg, route oral; settings: in vivo
# MDR1 (ABCB1) [6] = biological target: T1, MDR1 (ABCB1); experiment: Activity of human MDR1 expressed in pig LLC-PK cells assessed as efflux ratio of apparent permeability from basolateral to apical to apical to basolateral side at 5 uM after 1 to 4 hrs by LC-MS/MS analysis; assay type: ADME, cell-based; settings: LLC-PK1
# [7] = Apparent permeability from basolateral to apical side in pig LLC-PK cells at 5 uM after 1 to 4 hrs by LC-MS/MS analysis; assay type: ADME, cell-based, Sus scrofa; settings: LLC-PK1
# Brain [8] = experiment: Drug uptake in MDR1A-deficient CF-1 mouse brain at 5 mg/kg, po after 0.5 to 4 hrs by LC-MS/MS analysis; assay type: ADME, organism-based; design: dose 5 mg/kg, route oral; settings: in vivo
# Liver [9] = experiment: Drug uptake in MDR1A-deficient CF-1 mouse liver at 5 mg/kg, po after 0.5 to 4 hrs by LC-MS/MS analysis; assay type: ADME, organism-based; design: dose 5 mg/kg, route oral; settings: in vivo
# Brain [10] = experiment: Drug uptake in MDR1A-deficient CF-1 mouse brain at 5 mg/kg, po after 0.5 to 4 hrs by LC-MS/MS analysis relative to wild-type; assay type: ADME, organism-based; design: dose 5 mg/kg, route oral; settings: in vivo
# [11] = Ratio of drug level in brain to plasma in MDR1A-deficient CF-1 mouse at 5 mg/kg, po after 0.5 to 4 hrs by LC-MS/MS analysis; assay type: ADME, organism-based; design: dose 5 mg/kg, route oral; settings: read-out: BPR
# [12] = Efflux ratio of apparent permeability from basolateral to apical to apical to basolateral side in pig LLC-PK cells at 5 uM after 1 to 4 hrs by LC-MS/MS analysis; assay type: ADME, cell-based, Sus scrofa; settings: LLC-PK1
# Plasma [13] = experiment: Drug uptake in MDR1A-deficient CF-1 mouse plasma at 5 mg/kg, po after 0.5 to 4 hrs by LC-MS/MS analysis; assay type: ADME, organism-based; design: dose 5 mg/kg, route oral; settings: in vivo
# MDR1 (ABCB1) [14] = biological target: T1, MDR1 (ABCB1); experiment: Activity of human MDR1 expressed in pig LLC-PK cells assessed as apparent permeability from apical to basolateral side at 5 uM after 1 to 4 hrs by LC-MS/MS analysis; assay type: ADME, cell-based; settings: LLC-PK1
# T1 sequence (P08183 whole entry): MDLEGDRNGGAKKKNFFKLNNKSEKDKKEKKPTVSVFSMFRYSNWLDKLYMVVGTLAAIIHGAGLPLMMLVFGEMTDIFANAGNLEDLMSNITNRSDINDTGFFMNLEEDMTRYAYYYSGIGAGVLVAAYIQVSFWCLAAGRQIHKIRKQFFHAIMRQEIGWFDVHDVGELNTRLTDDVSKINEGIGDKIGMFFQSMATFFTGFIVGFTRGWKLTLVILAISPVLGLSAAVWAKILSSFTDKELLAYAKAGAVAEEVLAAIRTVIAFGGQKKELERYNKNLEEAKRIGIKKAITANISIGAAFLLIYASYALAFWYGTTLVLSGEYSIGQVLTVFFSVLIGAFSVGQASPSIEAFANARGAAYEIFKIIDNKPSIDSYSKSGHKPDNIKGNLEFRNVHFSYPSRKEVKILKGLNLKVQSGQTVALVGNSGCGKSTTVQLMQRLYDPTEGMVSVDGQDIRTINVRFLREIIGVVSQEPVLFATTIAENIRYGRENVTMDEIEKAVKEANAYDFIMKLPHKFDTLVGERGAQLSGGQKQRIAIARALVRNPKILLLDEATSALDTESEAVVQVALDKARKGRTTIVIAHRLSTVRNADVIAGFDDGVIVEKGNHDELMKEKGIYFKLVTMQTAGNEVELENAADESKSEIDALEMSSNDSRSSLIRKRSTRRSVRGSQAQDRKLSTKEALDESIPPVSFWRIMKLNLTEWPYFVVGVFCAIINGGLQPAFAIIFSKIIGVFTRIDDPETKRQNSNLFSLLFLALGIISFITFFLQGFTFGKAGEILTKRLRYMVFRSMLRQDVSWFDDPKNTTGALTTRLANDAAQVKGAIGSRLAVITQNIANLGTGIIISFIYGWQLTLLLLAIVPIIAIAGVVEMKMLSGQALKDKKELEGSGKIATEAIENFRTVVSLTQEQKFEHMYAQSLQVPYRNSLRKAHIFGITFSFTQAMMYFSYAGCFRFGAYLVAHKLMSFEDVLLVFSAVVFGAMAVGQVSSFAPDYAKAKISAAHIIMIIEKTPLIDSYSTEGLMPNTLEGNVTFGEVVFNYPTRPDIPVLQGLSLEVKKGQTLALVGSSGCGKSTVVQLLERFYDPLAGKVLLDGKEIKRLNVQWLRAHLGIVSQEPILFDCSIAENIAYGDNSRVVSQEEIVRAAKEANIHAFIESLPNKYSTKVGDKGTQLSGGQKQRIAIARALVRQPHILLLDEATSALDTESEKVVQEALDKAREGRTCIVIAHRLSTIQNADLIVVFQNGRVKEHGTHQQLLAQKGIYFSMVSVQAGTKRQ
Papp B→A at 5 µM (MDR1 (ABCB1) [1]) [×10⁻⁶ cm/s],Drug uptake (Plasma [2]),Drug uptake (Liver [3]),Papp A→B at 5 µM [4] [×10⁻⁶ cm/s],Drug uptake (Brain [5]),efflux ratio at 5 µM (MDR1 (ABCB1) [6]),Papp B→A at 5 µM [7] [×10⁻⁶ cm/s],Drug uptake (Brain [8]),Drug uptake (Liver [9]),Ratio (Brain [10]),Kp [11],efflux ratio at 5 µM [12],Drug uptake (Plasma [13]),Papp A→B at 5 µM (MDR1 (ABCB1) [14]) [×10⁻⁶ cm/s],Compound
6.74,–,–,–,–,–,–,–,–,–,–,–,–,–,C[C@H]1O[C@@H](O[C@H]2[C@@H](O)C[C@H](O[C@H]3[C@@H](O)C[C@H](O[C@H]4CC[C@@]5(C)[C@H](CC[C@@H]6[C@@H]5C[C@@H](O)[C@]5(C)[C@@H](C7=CC(=O)OC7)CC[C@]65O)C4)O[C@@H]3C)O[C@@H]2C)C[C@H](O)[C@@H]1O [DIGOXIN]
2.77,Active,Active,1.83,Active,2.67,2.15,Active,Active,20,> 10,1.07,Active,1.1,CC/C(=C(\c1ccc(O)cc1)c1ccc(OCCNC)cc1)c1ccccc1 [ENDOXIFEN]
